For data set [1], the system named is hiSIECs monolayers in gut MPS/Emulate. The experiment in a line: Permeability / donor concentration of test drugs using gut MPS/Emulate (fluidic conditions).
Experimental: F-hiSIEC was thawed and suspended in seeding medium according to the manufacture’s protocol. The suspension of F-hiSIEC (6.0×10^6 cells/mL, 35-40 μL/chip) was transferred to the chip and incubated at 37 °C overnight. The cells were then cultured in maintenance medium under perfusion culture conditions at a flow rate of 15 μL/hr from day1 to day 4 and 30 μL/h from day 5 to day9. Gravity wash and prime cycle were performed when necessary. Additionally, the membrane strain rate was set to 2% at a frequency of 0.15 Hz from day 3 to day 5 and to 10% from day 6 to day 9. The permeability of the test drugs was assessed on day 9.
The test drugs were added to the culture medium. The top and bottom channels of the chip were perfused with the media at a flow rate of 30 μL/h. […] Inhibitors (10μM Ketoconazole, 5μM PSC833 and 5μM Ko143) were added as a cocktail to both the channels. Media were collected from the outlet chamber at 6, 24, 30, and 48 h.
Data set [2] can be described thus: in vitro. The settings on record: human. Here is the method:
(§1) The seeding medium and culture medium of hiSIECs for LLI and ALI were obtained from FUJIFILM Corporation. hiSIECs were cultured according to the manufacturer’s instructions. Briefly, Fluid3D-X® devices were coated with Corning Matrigel GFR Basement Membrane Matrix (Corning) on the day before seeding the cells. hiSIECs were seeded onto a Fluid3D-X® device at 5.3 × 10^5 cells/MPS and incubated for 5.5 h. The seeding medium was added to the device, and cell culture was started in flow for 11 days at 20 pps 1/4 (3.8 µL/min). After one day, the seeding medium was replaced with LLI culture medium, and the medium was changed every two or three days. ALI culture was performed using the same method as the LLI culture, but the apical channel medium was removed to expose the cells to air on day 4. On day 11 after seeding, the gut MPS was used for the assay.
(§2) Eight gut chips were divided into two groups: with and without inhibitors. […] Because all steps were performed under static conditions, 200 µL of buffer was transferred from the outlet to the inlet by a micropipette before collection of each sample. Serial sampling (150 µL) was performed at following time points (0, 30, 60, 90, and 120 min) from both the donor and acceptor sides. Equal volumes of fresh buffer were added after the sample collection. At the end of the experiment (120 min), the cell lysates were collected. The concentrations of drugs and/or metabolites in the transport buffer and cells were measured by LC-MS/MS. To observe the inhibitory effects of the inhibitor on compound transport, transport experiments were performed in the presence of an inhibitor cocktail containing ketoconazole (10 µM), PSC833 (5 µM), and Ko143 (5 µM) to inhibit CYP3A4, P-gp, and BCRP.
(§3) The permeability, efflux ratio, and Fg parameters were derived as follows:
(§4) The apparent permeability coefficient (Papp, cm/s) was calculated using Eq. (1):1 [drawing 1]
(§5) where dQ/dt, MPS surface area, and C0 represent the amount of the test compound transported to the receiver compartment per unit time when the linearity of its time-dependent transport was
(§6) apparently maintained, the culture area of the gut MPS/Fluid3D-X (0.64 cm^2), and the
(§7) initial concentration of the test compound in the donor compartment.2 [drawing 2]
(§8) where Papp, basal to apical and Papp, apical to basal represent the apparent permeability coefficient in the
(§9) basolateral-to-apical and apical-to-basolateral directions, respectively.
(§10) The intestinal availability (Fg) of CYP3A substrates was calculated based on a previous report[35] using the following equation:3 [drawing 3]
(§11) where CLapical to basal (+ inhibitor) and CLapical to basal (-inhibitor) represent the transcellular transport clearance in the apical-to-basolateral direction in the presence or absence of the inhibitor, respectively.
(§12) The specimens were deproteinated with 3-times volumes of acetonitrile and centrifuged to obtain supernatants. For quantification of the drug concentration on the donor side, the specimens were further diluted 20 times with acetonitrile. Two microliters of each sample was subjected to LC–MS/MS analysis. An AB SCIEX QTRAP 5500 + mass spectrometer (Applied Biosystems, Foster City, CA) equipped with a Nexera X2 LC system (Shimadzu, Kyoto, Japan), operated in electron spray ionization mode, was used for the analysis. Chromatographic separation was performed at 40 °C on a GL Sciences Inc instrument. InertSustain C18 HP analytical column (2.1 I.D. × 100 mm, 3 μm) at a flow rate of 0.5 ml/min using the gradient method. The mobile phase consisted of 2 mmol/L ammonium acetate and 0.1% formic acid in water (mobile phase A) and 0.1% formic acid in acetonitrile (mobile phase B). […] The ion spray voltage and temperature were set at 4500 V and 600 °C, respectively.

Data set [3] deals with hiSIECs monolayers in gut MPS/Fluid3D-X. The experiment in a line: in vitro. Conditions: for effect of inhibitor cocktail on apical-to-basal transport: ketoconazole 10 µM. Here is the method: as §1, §2, §3, §4, §5, §6, §7, §8, §9, §10, §11, §12
For data set [4] the following is noted: in vivo, human; cited from earlier work.
The subject of data set [5] is hiSIECs. Conditions: ref 20 (Shirai et al.); cited from earlier work.
Setting [6] is: Papp, apical to basal, inhibitor (+).
The mark [7] stands for this setting: Papp, apical to basal, inhibitor (-).
Setting [8] is: Papp, basal to apical, inhibitor (-), no inhibitor, mean ± SD, n = 4, deuterium-labeled compound dosed to basal side, apical pH 6.5, basal pH 7.4.
The mark [9] stands for this setting: with ketoconazole 10 µM, PSC833 5 µM, Ko143 5 µM (both sides).

Consider 5 molecules from paper PMC11612460, “Development of a novel gut microphysiological system that facilitates assessment of drug absorption kinetics in gut” (Scientific Reports, 2024).

The term efflux ratio denotes the permeability from basolateral to apical divided by that in the opposite direction, in the common usage. The term Papp denotes the rate of passage across a membrane or cell layer, normalised by area and donor concentration. Read a high Papp as fast passage. Consider `C=C[C@H]1C[N@@]2CC[C@H]1C[C@@H]2[C@@H](O)c1ccnc2ccc(OC)cc12` [Quinidine], for which the “effluent concentration as percent of the corresponding inlet concentrations” value in data set [1] (at 24 h) amounted to 82%. In addition, the “reduction of concentration in the effluent relative to original drug solution” value in data set [1] (within the first 6 h) was 29%. The figures for the efflux ratio at 120 min in data set [2] and in data set [2] (setting [9]) were 2.02 ± 0.37 and 1.12 ± 0.63, respectively. The Papp at 120 min in data set [2] (setting [6]) is 3.88 ± 1.12 ×10⁻⁶ cm/s; in data set [2] (setting [7]) it was 2.15 ± 0.33 ×10⁻⁶ cm/s; in data set [2] (setting [8]), 4.37 ± 0.15 ×10⁻⁶ cm/s; in data set [2] (setting [9]), 4.37 ± 1.53 ×10⁻⁶ cm/s.
Regarding `O=C(O)c1cc(/N=N/c2ccc(S(=O)(=O)Nc3ccccn3)cc2)ccc1O` [Sulfasalazine], the efflux ratio at 120 min in data set [2] was found to be 12.7 ± 2.3; in data set [2] (setting [9]), 1.97 ± 0.76. The Papp at 120 min in data set [2] (setting [6]) is 0.557 ± 0.095 ×10⁻⁶ cm/s; in data set [2] (setting [7]), 0.505 ± 0.072 ×10⁻⁶ cm/s; in data set [2] (setting [8]), 6.44 ± 0.45 ×10⁻⁶ cm/s; in data set [2] (setting [9]) it was 1.1 ± 0.29 ×10⁻⁶ cm/s. Besides, in data set [3] (inhibitor cocktail ketoconazole 10 µM, PSC833 5 µM, Ko143 5 µM), the “decrease in intrinsic clearance (directional transport) in the presence of transporter inhibitors” value was 85%.
Turning to `Cc1ncc2n1-c1ccc(Cl)cc1C(c1ccccc1F)=NC2` [Midazolam], the “donor concentration relative to spiked concentration” value in data set [1] (presumably adsorption to the device) was “almost half of the spiked concentration”. The “Fg, clinical value” in data set [4] was 0.55. In addition, in data set [5], the “Fg reported by Shirai et al.” value is on record as 0.74. Also, the Papp at 120 min amounted to 14.4 ± 1.9 ×10⁻⁶ cm/s in data set [2] (Papp, apical to basal, inhibitor (+), inhibitor cocktail ketoconazole 10 µM, PSC833 5 µM, Ko143 5 µM, mean ± SD, n = 3) and 11.2 ± 0.6 ×10⁻⁶ cm/s in data set [2] (Papp, apical to basal, inhibitor (-), no inhibitor, mean ± SD, n = 4, apical pH 6.5, basal pH 7.4). The “fraction that escaped from the gut metabolism (Fg)” value in data set [3] (from ratio of apical-to-basal transport clearance with and without inhibitor) is reported as 0.64. In addition, the “effect of inhibitor cocktail on apical-to-basal transport” value in data set [3] (PSC833 5 µM, Ko143 5 µM) is on record as “increased with the addition of inhibitors”.
`Cc1cc(=O)n(-c2ccccc2)n1C` [Antipyrine]: the efflux ratio at 120 min in data set [2] (Efflux ratio (ER), inhibitor (+)) came to 0.78 ± 0.076; in data set [2] (Efflux ratio (ER), inhibitor (-)) it was 0.656 ± 0.12. Moreover, the Papp at 120 min in data set [2] (setting [6]) amounted to 18.5 ± 1.2 ×10⁻⁶ cm/s; in data set [2] (setting [7]), 20.1 ± 2.7 ×10⁻⁶ cm/s; in data set [2] (Papp, basal to apical, inhibitor (+)), 14.4 ± 0.7 ×10⁻⁶ cm/s; in data set [2] (Papp, basal to apical, inhibitor (-)) it was 13.2 ± 1.1 ×10⁻⁶ cm/s. Moreover, in data set [3] (PSC833 5 µM, Ko143 5 µM), the “effect of inhibitor cocktail on apical-to-basal transport” value was “not affected by the inhibitors”.
Regarding `OCc1ncc2n1-c1ccc(Cl)cc1C(c1ccccc1F)=NC2` [1-hydroxymidazolam], in data set [3] (midazolam dosed apical), the “secretion of metabolite to apical versus basal channel side” value is recorded as “preferentially secreted to the apical channel side”. The “formation of metabolite 1-hydroxymidazolam from midazolam in presence of inhibitors” value in data set [3] (midazolam dosed apical, inhibitor cocktail) is “decreased formation”.
